Test results reported in article PMC13415951 (Journal of Experimental Botany, 2026).
Values joined by “and” are separate entries in the source; they are usually repeats but may differ in a detail not shown here. Identical values can stand only once. Like-named read-outs stand apart in the source and are kept apart here.

Legend:
BdUGT5g03300 [1] = target: T1, BdUGT5g03300 (Brachypodium distachyon, UniProt I1IW79); experiment: biochemical
T1 sequence (I1IW79 1-469): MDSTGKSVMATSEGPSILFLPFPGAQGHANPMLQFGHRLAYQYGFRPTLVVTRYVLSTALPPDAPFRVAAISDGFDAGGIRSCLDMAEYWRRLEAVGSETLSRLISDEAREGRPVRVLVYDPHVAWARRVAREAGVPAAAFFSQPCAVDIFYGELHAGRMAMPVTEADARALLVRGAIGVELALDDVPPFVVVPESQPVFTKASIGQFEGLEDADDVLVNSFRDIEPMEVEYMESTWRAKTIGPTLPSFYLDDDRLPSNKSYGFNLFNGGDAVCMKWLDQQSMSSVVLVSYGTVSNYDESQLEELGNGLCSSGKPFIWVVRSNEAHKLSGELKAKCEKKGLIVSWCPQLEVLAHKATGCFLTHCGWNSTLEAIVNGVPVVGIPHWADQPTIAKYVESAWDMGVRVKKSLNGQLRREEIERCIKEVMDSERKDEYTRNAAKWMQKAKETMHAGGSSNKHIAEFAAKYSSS

[2] = target: T2, OsUGT79 H122A/L123A/Q202A (Oryza sativa subsp. japonica, UniProt Q7XT97, H122A/L123A/Q202A); assay type: biochemical
T2 sequence (Q7XT97 1-466 H122A/L123A/Q202A): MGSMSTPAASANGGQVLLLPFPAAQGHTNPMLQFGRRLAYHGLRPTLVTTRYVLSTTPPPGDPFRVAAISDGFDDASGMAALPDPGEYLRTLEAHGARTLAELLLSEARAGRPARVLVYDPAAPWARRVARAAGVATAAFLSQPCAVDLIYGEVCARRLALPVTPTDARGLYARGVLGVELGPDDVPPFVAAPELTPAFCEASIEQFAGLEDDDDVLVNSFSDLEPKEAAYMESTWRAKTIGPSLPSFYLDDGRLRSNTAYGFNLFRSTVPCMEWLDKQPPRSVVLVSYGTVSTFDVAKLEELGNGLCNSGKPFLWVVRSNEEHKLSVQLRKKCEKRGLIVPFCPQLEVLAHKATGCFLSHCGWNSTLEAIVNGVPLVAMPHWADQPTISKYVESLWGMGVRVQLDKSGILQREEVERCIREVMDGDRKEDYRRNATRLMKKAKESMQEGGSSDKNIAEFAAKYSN

BdUGT5g03300 [3] = target: T1, BdUGT5g03300; assay type: biochemical
OsUGT79 Q202A [4] = target: T3, OsUGT79 Q202A (Oryza sativa subsp. japonica, UniProt Q7XT97, Q202A); experiment: biochemical; assay type: biochemical
T3 sequence (Q7XT97 1-466 Q202A): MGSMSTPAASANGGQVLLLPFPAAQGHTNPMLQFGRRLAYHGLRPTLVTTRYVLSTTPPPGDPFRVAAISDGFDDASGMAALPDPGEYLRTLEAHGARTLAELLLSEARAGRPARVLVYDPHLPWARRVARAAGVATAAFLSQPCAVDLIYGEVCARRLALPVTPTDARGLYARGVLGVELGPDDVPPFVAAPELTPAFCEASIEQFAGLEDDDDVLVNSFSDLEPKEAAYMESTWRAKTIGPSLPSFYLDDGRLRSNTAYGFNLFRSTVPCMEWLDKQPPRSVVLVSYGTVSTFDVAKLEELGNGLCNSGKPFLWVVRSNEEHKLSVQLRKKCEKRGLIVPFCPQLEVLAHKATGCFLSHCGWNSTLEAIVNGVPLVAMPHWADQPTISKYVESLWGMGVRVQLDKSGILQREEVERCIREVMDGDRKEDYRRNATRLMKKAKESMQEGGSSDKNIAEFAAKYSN

HvUGT13248 [5] = target: T4, HvUGT13248 (Hordeum vulgare subsp. vulgare, UniProt M0Y4P1); experiment: biochemical; assay type: biochemical; set-up: made in house; host or cells: E. coli
T4 sequence (M0Y4P1 1-475): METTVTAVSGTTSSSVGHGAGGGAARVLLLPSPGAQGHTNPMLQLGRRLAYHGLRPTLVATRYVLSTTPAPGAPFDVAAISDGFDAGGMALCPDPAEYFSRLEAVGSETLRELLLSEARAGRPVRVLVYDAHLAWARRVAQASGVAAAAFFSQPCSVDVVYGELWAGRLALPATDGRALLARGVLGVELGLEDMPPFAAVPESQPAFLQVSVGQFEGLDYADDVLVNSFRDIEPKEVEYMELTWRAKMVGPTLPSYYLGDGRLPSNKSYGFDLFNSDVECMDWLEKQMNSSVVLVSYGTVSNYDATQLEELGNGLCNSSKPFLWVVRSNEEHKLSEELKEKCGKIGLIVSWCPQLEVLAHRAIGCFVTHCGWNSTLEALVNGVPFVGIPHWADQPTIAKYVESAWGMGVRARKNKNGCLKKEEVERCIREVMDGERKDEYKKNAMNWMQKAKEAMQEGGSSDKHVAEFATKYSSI

HvUGT13248 [6] = target: T4, HvUGT13248
OsUGT79 Q202A [7] = target: T3, OsUGT79 Q202A; assay type: biochemical
[8] = target: T2, OsUGT79 H122A/L123A/Q202A; experiment: biochemical; assay type: biochemical
B. distachyon Bd21-3 = tested on: B. distachyon Bd21-3; set-up: species or system Brachypodium distachyon; details: in vivo
OsUGT79 [9] = target: T5, OsUGT79 (Oryza sativa subsp. japonica, UniProt Q7XT97); experiment: biochemical; assay type: biochemical
T5 construct: made in house; host or cells: E. coli
T5 sequence (Q7XT97 1-466): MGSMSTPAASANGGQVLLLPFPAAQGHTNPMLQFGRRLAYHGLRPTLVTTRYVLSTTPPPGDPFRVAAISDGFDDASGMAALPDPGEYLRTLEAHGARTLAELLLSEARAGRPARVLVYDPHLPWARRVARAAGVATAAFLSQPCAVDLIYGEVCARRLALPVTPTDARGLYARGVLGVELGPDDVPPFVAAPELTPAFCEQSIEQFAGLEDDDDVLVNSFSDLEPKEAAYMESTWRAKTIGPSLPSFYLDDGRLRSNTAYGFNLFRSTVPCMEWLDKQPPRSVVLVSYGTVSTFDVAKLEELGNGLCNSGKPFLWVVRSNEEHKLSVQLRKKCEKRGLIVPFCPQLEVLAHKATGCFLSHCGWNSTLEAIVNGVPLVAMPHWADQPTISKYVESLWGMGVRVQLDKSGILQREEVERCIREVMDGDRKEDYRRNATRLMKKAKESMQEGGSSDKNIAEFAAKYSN

[10] = tested on: wheat cultivar Apogee seedlings; set-up: species or system Triticum aestivum; details: in vivo
[11] = tested on: B. distachyon line OE-10R14; set-up: species or system Brachypodium distachyon; details: in vivo
OsUGT79 [12] = target: T5, OsUGT79; experiment: biochemical; assay type: biochemical; remark: listed apart in the source
[13] = substrate: CC1(C)CCC[C@]2(C)[C@@H]3[C@H]1[C@@H](O)[C@@]2(C)C[C@H]3O; experiment: purified protein, by the assay type

For 11-Acetyl-culmorin, the “Glucosylation rate of DON, percentage of the control” value (BdUGT5g03300 [1]) was 0.83±0.01%.

For `CC1=C[C@H]2O[C@@H]3[C@H](O)C[C@](C)([C@@]2(CO)[C@H](O)C1=O)[C@]31CO1` [DON, deoxynivalenol], the “Specific activity (glucoside formation)” value [2] was 6.60 ± 0.31 nmol/min/mg, the “K M (DON)” value (BdUGT5g03300 [3]) was 1100 µM and the “V max with DON” value (BdUGT5g03300 [3]) was 0.14 µmol/min/mg. For the same molecule, the “K M (DON)” value (OsUGT79 Q202A [4]) was 290 µM, the “V max with DON” value (OsUGT79 Q202A [4]) was 0.85 µmol/min/mg and the “Specific activity (glucoside formation)” value (BdUGT5g03300 [1]) was 1.07 ± 0.03 nmol/min/mg. For the same molecule, the “K M (DON)” value (HvUGT13248 [5]) was 1800 µM, the “V max with DON” value (HvUGT13248 [5]) was 0.18 µmol/min/mg and the “Specific activity (glucoside formation)” value (HvUGT13248 [6]) was 8.77 ± 0.52 nmol/min/mg. The “Specific activity (glucoside formation)” value (OsUGT79 Q202A [7]) was 161 ± 46 nmol/min/mg, the “K M (DON)” value [8] was 1300 µM and the “V max with DON” value [8] was 0.26 µmol/min/mg. The “DON concentration up to which root growth was observed” value (B. distachyon Bd21-3) was “up to 16 mg l^−1”, the “DON concentrations at which root growth was not affected or barely affected” value (B. distachyon Bd21-3) was 2 to 8 mg/L and the “Specific activity (glucoside formation)” value (OsUGT79 [9]) was 159 ± 33 nmol/min/mg. For the same molecule, the “DON concentration at which root growth was already impaired” value [10] was 3 mg/L, the “Effect on primary and total root length” value [10] was “significant reduction” and the “DON concentration tolerated without significant reduction in root length” value [11] was “up to 50 mg l^−1”. The “K M (DON)” value (OsUGT79 [12]) was 190 µM and the “V max with DON” value (OsUGT79 [12]) was 0.63 µmol/min/mg.

With Culmorin-8,11-disulfate the “Glucosylation rate of DON, percentage of the control” value (BdUGT5g03300 [1]) was 95±1% and 78±1%, the “Glucosylation rate of DON, percentage of the control” value (HvUGT13248 [6]) was 98±2% and the “Glucosylation rate of DON, percentage of the control” value (OsUGT79 [9]) was 103±2% and 99±7%.

Culmorin-8-glucoside was tested, and the “Glucosylation rate of DON, percentage of the control” value (BdUGT5g03300 [1]) was 0.93±0.02%, the “Glucosylation rate of DON, percentage of the control” value (HvUGT13248 [6]) was 92±2% and 81±3% and the “Glucosylation rate of DON, percentage of the control” value (OsUGT79 [9]) was 97±7% and 91±7%.

For Culmorin-8-sulfate, the “Glucosylation rate of DON, percentage of the control” value (HvUGT13248 [6]) was 97±4% and 79±1% and the “Glucosylation rate of DON, percentage of the control” value (OsUGT79 [9]) was 105±1% and 89±4%.

With Culmorin-11-glucoside the “Glucosylation rate of DON, percentage of the control” value (BdUGT5g03300 [1]) was 0.48±0.03% and the “Glucosylation rate of DON, percentage of the control” value (OsUGT79 [9]) was 96±7% and 115±5%.

With Culmorin-11-sulfate the “Glucosylation rate of DON, percentage of the control” value (BdUGT5g03300 [1]) was 0.30±0.02%, the “Glucosylation rate of DON, percentage of the control” value (HvUGT13248 [6]) was 90±2% and 49±3% and the “Glucosylation rate of DON, percentage of the control” value (OsUGT79 [9]) was 91±7% and 61±2%.

B1: HvUGT13248 (Hordeum vulgare subsp. vulgare) (protein)
chain: METTVTAVSGTTSSSVGHGAGGGAARVLLLPSPGAQGHTNPMLQLGRRLAYHGLRPTLVATRYVLSTTPAPGAPFDVAAISDGFDAGGMALCPDPAEYFSRLEAVGSETLRELLLSEARAGRPVRVLVYDAHLAWARRVAQASGVAAAAFFSQPCSVDVVYGELWAGRLALPATDGRALLARGVLGVELGLEDMPPFAAVPESQPAFLQVSVGQFEGLDYADDVLVNSFRDIEPKEVEYMELTWRAKMVGPTLPSYYLGDGRLPSNKSYGFDLFNSDVECMDWLEKQMNSSVVLVSYGTVSNYDATQLEELGNGLCNSSKPFLWVVRSNEEHKLSEELKEKCGKIGLIVSWCPQLEVLAHRAIGCFVTHCGWNSTLEALVNGVPFVGIPHWADQPTIAKYVESAWGMGVRARKNKNGCLKKEEVERCIREVMDGERKDEYKKNAMNWMQKAKEAMQEGGSSDKHVAEFATKYSSI
With B1 the Km ([13]; pH 7.0) was 27 ± 4 µM and the Vmax ([13]; pH 7.0) was 18.2 ± 0.8 nmol/min/mg.

B2: BdUGT5g03370 (Brachypodium distachyon) (protein)
chain: MDSINTTAQRSIGGGGGHVLLLPFPGMQGHANPMLQLGRRLAYHGLRPTLVVTRYVFSTTATTDGCPFPVAAISDGFDAGGIASCPDTAEYLRRMESVGSETLSRLISDEARAGRPVRVLVYDSHLPWARRAAKRAGVAAAAFLTQLCAVDVIYGEAWAGRVALPLTDGSALRGVLSVELGPDDVPPFVAAPEWYPAFTESALGQFDGLEEADDVLVNSFRDLEPKEADYMELVWRTKTVGPTLPSFYLDDNRLPLNKTYGFNLFSSIALCMEWLDKQVPCSVVLASYGTVANLNSTQLEELGYGLCNSRQPFLWVLRSDEAEKLPKDLRDKCNTKGLIVPFCPQLEVLAHKATGCFLTHCGWNSTIEAIVTGVPMVAIPQWADQPTTAKYVESAWGIGRRACPDRECLVTREKIERCVKEVICGEKEYTRNAAKWMQKAKEAMQQGGSSDKNISDFVAKYL
B2 gave a Km [13] of 59 ± 7 µM and a Vmax [13] of 0.57 nmol/min/mg.

B3: BdUGT5g03380 (Brachypodium distachyon) (protein)
chain: MESVNTSPHSSDHEGGGGGGAHVLLVPLPAQGHMNPMLQFGRRLAYHGLRPTLAATRYVLSTGPPPGAPFRVAAFSDGFDAGGMASCADPVEYCRKFEAVGSSTLAQAIESETAAGRAPTVLVYDPHMAWVPRVARAAGVPVAAFMSQSCAVDLVYGEAWAGRAPLPMADGSALKRRGIVSIDLAAEDLSPFVVSPEIYPKYLDVSIRQFEALDDADDVFVNSFRDLEPLEAEYMEKRWRAKTVGPTLPSFFLGDDRLPSNKAYGVNFFSATAPCMAWLDRQPARSVVLASYGTVYNLESMELDELGNGLCDSGKPFLWVVRSSEAEKLSEQLLGRCKEKGLIVPWCPQLDVLAHNAIGCFLTHCGWNSTTEAIVAGVPMVAMPRSADQPTTAKYVESAWGIGVRVRADEKGLVKRAEVEGCIKKVMDGEMKDEFRGNAAEWMRKAKEAMQEGGSSDKNIAEFAAKYLER
Work on B3 yielded a Km [13] of 150 µM and a Vmax [13] of 0.43 ± 0.03 nmol/min/mg.
